Reference: PMC6273578, “Design, Synthesis and Biological Evaluation of Benzohydrazide Derivatives Containing Dihydropyrazoles as Potential EGFR Kinase Inhibitors” (Molecules, 2016)
Read-outs that look alike come from different tables or passages of the source.

Columns and labels:
[1] = target: epidermal growth factor receptor (EGFR) (Homo sapiens, UniProt P00533); assay: EGFR kinase inhibition, solid-phase ELISA assay
Description: All these newly synthesized compounds were evaluated for their inhibitory activities against EGFR kinases using a solid-phase ELISA assay.
EGFR tyrosine kinase activity was determined by an enzyme linked-immunosorbent assay (ELISA) in 96-well plates precoated in a 10 mL reaction volume including 4 mL diluted test compounds, 4 mL substrate and 2 mL ATP. […] The plates were then aspirated and washed twice with 200 mL 0.9% (w/v) NaCl, and incorporation of Pi was determined with an LX300 Epson Diagnostic microplate reader. […] The experiments were replicated at least three times to verify the methodology reproducibility when using the above-mentioned conditions.

HepG2 cells = assay: MTT antiproliferative assay, HepG2; format: cell-based, human; conditions: read-out: In vitro antiproliferative activity IC50, HepG2
Description: (§1) IC50 values of the test compounds against A549, MCF-7, Hela and HepG2 cells were obtained from State Key Laboratory of Pharmaceutical Biotechnology, Nanjing University, and were determined by a standard (MTT)-based colorimetric assay (Beyotime Inst. Biotech., Nanjing, China). Tumor cell lines were grown to mid-log phase and then diluted to […] making sure they were seeded in 96-well plates (Philas, Nanjing, China) at a density of 5 × 10^3–1 × 10^4 cells per well. The outer wells containing 1 × PBS solution of the plate are not used for the assay to avoid the possibility of edge effects. The plate was incubated at 37 °C in a 5% CO2 incubator in DMEM containing 10% fetal bovine serum (FBS, Gibco, Waltham, MA, USA) for 24 h. Then, we added a 100-μL series concentration of drug-containing medium into the wells to maintain the final concentration of drug as 100, 10, 1 and 0.1 μmol/L. After 12 h, cell survival was determined by the addition of a MTT (3-(4,5-dimethylthiazol-2-yl)-2,5-diphenyl trtrazolium bromide) solution (10 μL of 5 mg/mL MTT in 1 × PBS). We waited for 4 h proliferation, discarded the medium and quickly added 150 μL DMSO per well, shaking the plates well for 10 min to ensure complete dissolution. Optical absorbance was measured at 570 nm on a microplate reader (Bio-Rad, Hercules, CA, USA). Survival ratios are expressed in percentages with respect to untreated cells. The experiments were replicated at least three times to verify the methodology reproducibility when using the above-mentioned conditions.

A549 cells = assay: MTT antiproliferative assay, A549; format: cell-based, human; conditions: read-out: In vitro antiproliferative activity IC50, A549
Description: as §1

MCF-7 cells = assay: MTT antiproliferative assay, MCF-7; format: cell-based, human
Description: as §1

HeLa cells = assay: MTT antiproliferative assay, HeLa; format: cell-based, human; conditions: read-out: In vitro antiproliferative activity IC50, HeLa
Description: as §1

[2] = test system: 293T human kidney epithelial cells; assay: Cytotoxicity test (MTT) on 293T cells; conditions: read-out: median cytotoxic concentration CC50; 293T cells, MTT assay, 24 h
Description: (§2) The cytotoxic activity in vitro was measured by the colorimetric MTT assay. […] For the cytotoxicity assay, 20 μL of MTT (5 mg/mL) was added per well 4 h before the end of the incubation. After removing the supernatant, 200 μL DMSO was added to dissolve the formazan crystals. The absorbance at λ 570 nm was read on an LX300 Epson Diagnostic microplate reader, untreated cells were used as negative controls.

EGFR = conditions: read-out: EGFR inhibitory activity IC50, cited from earlier work
[3] = Cytotoxicity test (MTT) on 293T cells; conditions: human, 293T human kidney epithelial cells
Description: as §2

[4] = read-out: Inhibition activity IC50 against EGFR, solid-phase ELISA assay
[5] = read-out: In vitro antiproliferative activity IC50, MCF-7
[6] = Homo sapiens, MCF7, read-out: In vitro antiproliferative activity IC50, MCF-7

epidermal growth factor receptor (EGFR), sequence (P00533 25-1210): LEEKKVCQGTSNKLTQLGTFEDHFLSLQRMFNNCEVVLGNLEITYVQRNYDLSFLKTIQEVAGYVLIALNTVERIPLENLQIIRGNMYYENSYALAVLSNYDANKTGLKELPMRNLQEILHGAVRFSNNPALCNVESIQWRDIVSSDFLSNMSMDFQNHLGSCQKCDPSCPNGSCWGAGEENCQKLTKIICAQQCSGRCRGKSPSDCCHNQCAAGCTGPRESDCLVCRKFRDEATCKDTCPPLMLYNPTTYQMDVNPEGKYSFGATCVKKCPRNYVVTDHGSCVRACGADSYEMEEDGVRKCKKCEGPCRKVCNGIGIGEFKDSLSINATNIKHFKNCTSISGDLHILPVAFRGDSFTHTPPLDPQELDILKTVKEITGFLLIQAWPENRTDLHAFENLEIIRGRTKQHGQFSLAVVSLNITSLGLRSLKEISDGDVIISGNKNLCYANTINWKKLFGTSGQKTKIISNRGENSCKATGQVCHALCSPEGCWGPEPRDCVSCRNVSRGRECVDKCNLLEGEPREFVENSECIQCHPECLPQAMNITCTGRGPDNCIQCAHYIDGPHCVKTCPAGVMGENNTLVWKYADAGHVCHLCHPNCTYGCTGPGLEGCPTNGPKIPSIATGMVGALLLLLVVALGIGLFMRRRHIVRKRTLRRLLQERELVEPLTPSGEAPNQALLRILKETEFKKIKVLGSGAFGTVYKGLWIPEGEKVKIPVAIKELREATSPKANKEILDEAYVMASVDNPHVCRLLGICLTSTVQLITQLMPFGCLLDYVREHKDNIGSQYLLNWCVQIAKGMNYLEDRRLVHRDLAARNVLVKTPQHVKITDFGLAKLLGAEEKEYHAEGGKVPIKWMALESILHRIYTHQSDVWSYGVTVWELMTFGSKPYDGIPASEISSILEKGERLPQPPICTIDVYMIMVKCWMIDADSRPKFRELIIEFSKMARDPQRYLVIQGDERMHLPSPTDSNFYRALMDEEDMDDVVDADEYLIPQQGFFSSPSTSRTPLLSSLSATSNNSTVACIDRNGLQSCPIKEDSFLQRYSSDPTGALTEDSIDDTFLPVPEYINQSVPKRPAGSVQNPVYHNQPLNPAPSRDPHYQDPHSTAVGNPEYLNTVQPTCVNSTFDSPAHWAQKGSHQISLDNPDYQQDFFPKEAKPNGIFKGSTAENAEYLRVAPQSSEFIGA

Row | Compound | IC50 [1, 4] | IC50 (HepG2 cells) | IC50 (A549 cells) | IC50 (MCF-7 cells; [5]) | IC50 (HeLa cells) | CC50 [2] | also measured
1 | COc1ccc(C2CC(c3ccc(C)c(C)c3)=NN2C(N)=S)cc1 (centres unmarked) [a] |  |  |  |  |  |  | IC50 (EGFR; reported compounds of Figure 1): 0.07 µM
2 | COc1cccc(/C=N/NC(=O)c2ccc(N3N=C(c4ccccc4)CC3c3ccc4ccccc4c3)cc2)c1 (centres unmarked) [Compound H1, (E)-N′-(3-Methoxybenzylidene)-4-(5-(naphthalen-2-yl)-3-phenyl-4,5-dihydro-1H-pyrazol-1-yl)benzo-hydrazide] | 8.47 µM | 28.8 µM | 14.5 µM | 21 µM | 22.5 µM | 98.6 µM | 
3 | COc1cccc(/C=N/NC(=O)c2ccc(N3N=C(c4ccccc4C)CC3c3ccc4ccccc4c3)cc2)c1 (centres unmarked) [Compound H2, (E)-N′-(3-Methoxybenzylidene)-4-(5-(naphthalen-2-yl)-3-(o-tolyl)-4,5-dihydro-1H-pyrazol-1-yl)benzo-hydrazide] | 0.65 µM | 0.67 µM | 1.41 µM | 1.52 µM | 0.6 µM | 87.5 µM | 
4 | (E)-4-(3-(4-Ethylphenyl)-5-(naphthalen-2-yl)-4,5-dihydro-1H-pyrazol-1-yl)-N′-(3-methoxybenzylidene)-benzohydrazide [Compound H5] |  | 6.16 µM | 5.49 µM | 7.72 µM | 8.71 µM | 92.5 µM | 
5 | COc1cccc(/C=N/NC(=O)c2ccc(N3N=C(c4ccc(C)cc4)CC3c3ccc4ccccc4c3)cc2)c1 (centres unmarked) [Compound H4, (E)-N′-(3-Methoxybenzylidene)-4-(5-(naphthalen-2-yl)-3-(p-tolyl)-4,5-dihydro-1H-pyrazol-1-yl)benzo-hydrazide] | 0.23 µM | 0.51 µM | 0.43 µM | 0.69 µM | 0.45 µM | 98.8 µM | 
6 | Cc1ccc(C2=NN(C3=NC(=O)CS3)C(c3ccc(Br)cc3)C2)cc1 (centres unmarked) [b] |  |  |  |  |  |  | IC50 (EGFR; reported compounds of Figure 1): 0.24 µM
7 | COc1cccc(/C=N/NC(=O)c2ccc(N3N=C(c4cccc(C)c4)CC3c3ccc4ccccc4c3)cc2)c1 (centres unmarked) [Compound H3, (E)-N′-(3-Methoxybenzylidene)-4-(5-(naphthalen-2-yl)-3-(m-tolyl)-4,5-dihydro-1H-pyrazol-1-yl)benzo-hydrazide] | 2.12 µM | 3.54 µM | 3.02 µM | 2.89 µM | 2.45 µM | 92.3 µM | 
8 | (E)-N′-(3-Methoxybenzylidene)-4-(3-(4-methoxyphenyl)-5-(naphthalen-2-yl)-4,5-dihydro-1H-pyrazol-1-yl)-benzohydrazide [Compound H6] |  | 11.5 µM | 8.32 µM | 10.2 µM | 13.2 µM | 81.8 µM | 
9 | (E)-4-(3-(4-Ethylphenyl)-5-(naphthalen-2-yl)-4,5-dihydro-1H-pyrazol-1-yl)-N′-(4-methoxybenzylidene)-benzohydrazide [Compound H21] |  | 5.06 µM | 4.54 µM | 6.33 µM | 7.93 µM | 82.6 µM | 
10 | Cc1ccc(C2=NN(C3=NC(=O)CS3)C(c3ccc4ccccc4c3)C2)cc1C (centres unmarked) [Compound e] |  |  |  |  |  |  | IC50 (EGFR; reported compound of Figure 1): 0.12 µM
11 | CC(=O)N1N=C(c2ccc(C(F)(F)F)cc2)CC1c1ccc(C(=O)OCC(C)n2c([N+](=O)[O-])cnc2C)cc1 (centres unmarked) [d] |  |  |  |  |  |  | IC50 (EGFR; reported compounds of Figure 1): 0.26 µM
12 | Cc1ccc(C2=NN(c3ncc(-c4ccc(Cl)cc4)s3)C(c3ccc(F)cc3)C2)cc1C (centres unmarked) [c] |  |  |  |  |  |  | IC50 (EGFR; reported compounds of Figure 1): 0.06 µM
13 | (E)-N′-(4-Methoxybenzylidene)-4-(3-(4-methoxyphenyl)-5-(naphthalen-2-yl)-4,5-dihydro-1H-pyrazol-1-yl)-benzohydrazide [Compound H22] |  | 10.5 µM | 7.12 µM | 9.69 µM | 12.3 µM | 84.7 µM | 
14 | COc1cccc(/C=N/NC(=O)c2ccc(N3N=C(c4cc(OC)c(OC)c(OC)c4)CC3c3ccc4ccccc4c3)cc2)c1 (centres unmarked) [Compound H7, (E)-N′-(3-Methoxybenzylidene)-4-(5-(naphthalen-2-yl)-3-(3,4,5-trimethoxyphenyl)-4,5-dihydro-1H-pyrazol-1-yl)benzohydrazide] |  |  |  |  |  |  | IC50 [1]: 26.9 µM; melting point: 230 to 232 °C; IC50 (HepG2 cells; Homo sapiens): > 100 µM; IC50 (A549 cells; Homo sapiens): 78.3 µM; IC50 (MCF-7 cells; [6]): 95.3 µM; IC50 (HeLa cells; Homo sapiens): > 100 µM; CC50 at 24 h [3]: 92.9 µM
15 | COc1cccc(/C=N/NC(=O)c2ccc(N3N=C(c4cccc(F)c4)CC3c3ccc4ccccc4c3)cc2)c1 (centres unmarked) [Compound H10, (E)-4-(3-(3-Fluorophenyl)-5-(naphthalen-2-yl)-4,5-dihydro-1H-pyrazol-1-yl)-N′-(3-methoxybenzylidene)-benzohydrazide] |  |  |  |  |  |  | IC50 [1]: 20 µM; melting point: 241 to 243 °C; IC50 (HepG2 cells; Homo sapiens): 92.5 µM; IC50 (A549 cells; Homo sapiens): 58.6 µM; IC50 (MCF-7 cells; [6]): 80.1 µM; IC50 (HeLa cells; Homo sapiens): 84.1 µM; CC50 at 24 h [3]: 95.8 µM
16 | COc1cccc(/C=N/NC(=O)c2ccc(N3N=C(c4ccc(F)cc4)CC3c3ccc4ccccc4c3)cc2)c1 (centres unmarked) [Compound H11, (E)-4-(3-(4-Fluorophenyl)-5-(naphthalen-2-yl)-4,5-dihydro-1H-pyrazol-1-yl)-N′-(3-methoxybenzylidene)-benzohydrazide] |  |  |  |  |  |  | IC50 [1]: 14.1 µM; melting point: 235 to 237 °C; IC50 (HepG2 cells; Homo sapiens): 60.9 µM; IC50 (A549 cells; Homo sapiens): 45.2 µM; IC50 (MCF-7 cells; [6]): 60.8 µM; IC50 (HeLa cells; Homo sapiens): 56.2 µM; CC50 at 24 h [3]: 86.5 µM
17 | COc1ccc(/C=N/NC(=O)c2ccc(N3N=C(c4ccc(Br)cc4)CC3c3ccc4ccccc4c3)cc2)cc1 (centres unmarked) [Compound H32, (E)-4-(3-(4-Bromophenyl)-5-(naphthalen-2-yl)-4,5-dihydro-1H-pyrazol-1-yl)-N′-(4-methoxybenzylidene)-benzohydrazide] |  |  |  |  |  |  | IC50 [1]: 8.64 µM; melting point: 238 to 240 °C; IC50 (HepG2 cells; Homo sapiens): 32.9 µM; IC50 (A549 cells; Homo sapiens): 19.7 µM; IC50 (MCF-7 cells; [6]): 30.2 µM; IC50 (HeLa cells; Homo sapiens): 25.6 µM; CC50 at 24 h [3]: 83.6 µM

Second part, led by results:

Row | IC50 [1, 4] | IC50 (HepG2 cells) | IC50 (A549 cells) | IC50 (MCF-7 cells; [5]) | IC50 (HeLa cells) | Compound | CC50 [2] | also measured
18 | 0.48 µM | 0.56 µM | 1.22 µM | 1.63 µM | 0.78 µM | COc1ccc(/C=N/NC(=O)c2ccc(N3N=C(c4ccccc4C)CC3c3ccc4ccccc4c3)cc2)cc1 (centres unmarked) [Compound H18, (E)-N′-(4-Methoxybenzylidene)-4-(5-(naphthalen-2-yl)-3-(o-tolyl)-4,5-dihydro-1H-pyrazol-1-yl)benzo-hydrazide] | 90.6 µM | 
19 | 7.89 µM | 26.7 µM | 13.3 µM | 18.4 µM | 20.7 µM | COc1ccc(/C=N/NC(=O)c2ccc(N3N=C(c4ccccc4)CC3c3ccc4ccccc4c3)cc2)cc1 (centres unmarked) [Compound H17, (E)-N′-(4-Methoxybenzylidene)-4-(5-(naphthalen-2-yl)-3-phenyl-4,5-dihydro-1H-pyrazol-1-yl)benzo-hydrazide] | 94.2 µM | 
20 | 1.25 µM | 3.26 µM | 2.24 µM | 2.45 µM | 1.19 µM | COc1ccc(/C=N/NC(=O)c2ccc(N3N=C(c4cccc(C)c4)CC3c3ccc4ccccc4c3)cc2)cc1 (centres unmarked) [Compound H19, (E)-N′-(4-Methoxybenzylidene)-4-(5-(naphthalen-2-yl)-3-(m-tolyl)-4,5-dihydro-1H-pyrazol-1-yl)benzo-hydrazide] | 92.6 µM | 
